Reference: patent US8242118B2, “Arylsulfonamide derivatives for use as CCR3 antagonists in the treatment of inflammatory and immunological disorders” (Axikin Pharmaceuticals Inc., priority 2001, dated 2012)
Counter-ions that a name gives are not always drawn.

Row | Compound | melting point
1 | Cc1cc(C)cc(Oc2ccncc2S(=O)(=O)N2CCNCC2)c1 (as salt: hydrochloride) [Example 25-1, 1-{[4-(3,5-dimethylphenoxy)-3-pyridinyl]sulfonyl}piperazine hydrochloride] | 220 °C
2 | Cl.N#Cc1ccc(Sc2cc(Cl)cc(Cl)c2)c(S(=O)(=O)N2CCCNCC2)c1 [Example 17-3] | 277 to 278 °C
3 | O=[N+]([O-])c1ccc(Oc2cc(Cl)cc(Cl)c2)c(S(=O)(=O)N2CCC(N3CCCC3)CC2)c1 [Example 4-1, 1-{[2-(3,5-dichlorophenoxy)-5-nitrophenyl]sulfonyl}-4-(1-pyrrolidinyl)piperidine] | 217 to 218 °C
4 | N#Cc1ccc(Oc2cc(Cl)cc(Cl)c2)c(S(=O)(=O)N2CCCNCC2)c1 (as salt: hydrochloride) [Example 12-1, 3-(1,4-diazepan-1-ylsulfonyl)-4-(3,5-dichlorophenoxy)benzonitrile hydrochloride] | 278 to 280 °C
5 | Cc1cc(C)cc(Sc2ccc([N+](=O)[O-])cc2S(=O)(=O)N2CCNCC2)c1 (as salt: hydrochloride) [Example 2-1, 1-({2-[(3,5-dimethylphenyl)-sulfanyl]-5-nitrophenyl}sulfonyl)piperazine hydrochloride] | 225 to 227 °C
6 | Cc1cc(C)cc(Oc2ccc([N+](=O)[O-])cc2S(=O)(=O)N2CCNCC2)c1.O=C(O)C(F)(F)F [Example 1-3] | 120 to 125 °C
7 | Cc1cc(C)cc(Oc2ccc(CO)cc2S(=O)(=O)N2CCNCC2)c1 (as salt: hydrochloride) [Example 16-1, [4-(3,5-dimethylphenoxy)-3-(1-piperazinylsulfonyl)phenyl]methanol hydrochloride] | 160 °C
8 | Cc1cc(C)cc(Oc2cc(Br)cc(S(=O)(=O)N3CCNCC3)c2)c1 (as salt: hydrochloride) [Example 24-1, 1-{[3-bromo-5-(3,5-dimethylphenoxy)phenyl]sulfonyl}piperazine hydrochloride] | > 84 °C (dec.)
9 | Cc1cc(C)cc(Oc2ccc(Cl)cc2S(=O)(=O)N2CCNCC2)c1 (as salt: hydrochloride) [Example 5-2, 1-{[5-chloro-2-(3,5-dimethylphenoxy)phenyl]sulfonyl}piperazine hydrochloride] | 202 to 204 °C
10 | N#Cc1ccc(S(=O)(=O)c2cc(Cl)cc(Cl)c2)c(S(=O)(=O)N2CCNCC2)c1 (as salt: hydrochloride) [Example 18-1, 4-[(3,5-dichlorophenyl)sulfonyl]-3-(1-piperazinylsulfonyl)benzonitrile hydrochloride] | 258 °C
11 | N#Cc1ccc(Oc2cc(Cl)cc(Cl)c2)c(S(=O)(=O)N2CC[C@H](N)C2)c1 (as salt: hydrochloride) [Example 13-1, 1-{5-cyano-2-(3,5-dichlorophenoxy)phenylsulfonyl}-(3S)-aminopyrrolidine hydrochloride] | 276 °C
12 | Cc1cc(C)cc(Oc2ccc(C(=O)NCCC(N)=O)cc2S(=O)(=O)N2CCNCC2)c1 (as salt: hydrochloride) [Example 22-2, N-[4-(3,5-dimethylphenoxy)-3-(1-piperazinylsulfonyl)benzoyl]-beta-alanineamide hydrochloride] | 121 °C
13 | N#Cc1ccc(Oc2cc(Cl)cc(Cl)c2)c(S(=O)(=O)N2CCC(N3CCCC3)CC2)c1 [Example 6-5] | 186 to 187 °C
14 | Cc1cc(C)cc(Oc2ccc(S(=O)(=O)N3CCNCC3)cc2S(=O)(=O)N2CCNCC2)c1.Cl.Cl | 214 to 220 °C
15 | N#Cc1ccc(Oc2cc(Cl)cc(Cl)c2)c(S(=O)(=O)N2C[C@H]3CCCN[C@H]3C2)c1 [Example 13-6] | 164 to 165 °C
16 | N#Cc1ccc(Oc2cc(Cl)cc(Cl)c2)c(S(=O)(=O)N2CCNCC2)c1 [Example 6-4] | 179 to 181 °C
17 | Cc1cc(C)cc(Oc2ccc(-c3nnn[nH]3)cc2S(=O)(=O)N2CCNCC2)c1 (as salt: hydrochloride) [Example 22-4, 1-{[2-(3,5-dimethylphenoxy)-5-(1H-tetraazol-5-yl)phenyl]sulfonyl}piperazine hydrochloride] | 213 °C
18 | CN(c1cc(Cl)cc(Cl)c1)c1ccc(C#N)cc1S(=O)(=O)N1CCNCC1 (as salt: hydrochloride) [Example 21-1, 4-[(3,5-dichlorophenyl)(methyl)amino]-3-(1-piperazinylsulfonyl)benzonitrile hydrochloride] | 163 °C
19 | Cc1cc(C)cc(Oc2cc([N+](=O)[O-])ccc2S(=O)(=O)N2CCNCC2)c1 (as salt: hydrochloride) [Example 23-1, 1-{2-(3,5-dimethylphenoxy)-4-nitrophenylsulfonyl}piperazine hydrochloride] | 284 °C
20 | COc1ccc(Oc2cc(C)cc(C)c2)c(S(=O)(=O)N2CCNCC2)c1 (as salt: hydrochloride) [Example 6-2] | 175 to 177 °C
21 | N#Cc1ccc(Sc2cc(Cl)cc(Cl)c2)c(S(=O)(=O)N2CCNCC2)c1 (as salt: hydrochloride) [Example 17-1, 4-[(3,5-dichlorophenyl)sulfanyl]-3-(1-piperazinylsulfonyl)benzonitrile hydrochloride] | 82 °C
22 | COC(=O)c1ccc(Oc2cc(C)cc(C)c2)c(S(=O)(=O)N2CCNCC2)c1 (as salt: hydrochloride) [Example 15-2, methyl 4-(3,5-dimethylphenoxy)-3-(1-piperazinylsulfonyl)benzoate hydrochloride] | 120 °C
23 | Cc1cc(C)cc(Nc2ccc([N+](=O)[O-])cc2S(=O)(=O)N2CCNCC2)c1 (as salt: hydrochloride) [Example 3-1, N-(3,5-dimethyl-phenyl)-4-nitro-2-(1-piperazinylsulfonyl)aniline dihydrochloride] | 175 to 179 °C
24 | N#Cc1ccc(Oc2cc(Cl)cc(Cl)c2)c(S(=O)(=O)N2CCNCC2C(=O)O)c1 (centres unmarked) [Example 13-9] | 262 °C
25 | CN(C)C(=O)c1ccc(Oc2cc(Cl)cc(Cl)c2)c(S(=O)(=O)N2CCNCC2)c1 (as salt: hydrochloride) [Example 10-1, 4-(3,5-dichlorophenoxy)-N,N-dimethyl-3-(1-piperazinylsulfonyl)benzamide hydrochloride] | 197 to 199 °C
26 | Cc1cc(C)cc(Oc2ccc(-c3nnnn3CCC#N)cc2S(=O)(=O)N2CCNCC2)c1 (as salt: hydrochloride) [Example 22-3, 3-{5-[4-(3,5-dimethylphenoxy)-3-(1-piperazinylsulfonyl)phenyl]-1H-tetraazol-1-yl}propanenitrile hydrochloride] | 125 °C
27 | Cc1cc(C)cc(Oc2ccc([N+](=O)[O-])cc2S(=O)(=O)N2CCNCC2)c1 (as salt: hydrochloride) [Example 1-2, 1-{[2-(3,5-dimethylphenoxy)-5-nitrophenyl]sulfonyl}piperazine hydrochloride] | 264 to 266 °C
28 | N#Cc1ccc([S+]([O-])c2cc(Cl)cc(Cl)c2)c(S(=O)(=O)N2CCNCC2)c1 (centres unmarked) (as salt: hydrochloride) [Example 19-1, 4-[(3,5-dichlorophenyl)sulfinyl]-3-(1-piperazinylsulfonyl)benzonitrile hydrochloride] | 219 °C
29 | Cc1cc(C)cc(Oc2ccc(C(=O)NCCC#N)cc2S(=O)(=O)N2CCNCC2)c1 (as salt: hydrochloride) [Example 22-1, N-(2-cyanoethyl)-4-(3,5-dimethylphenoxy)-3-(1-piperazinylsulfonyl)benzamide hydrochloride] | 101 °C
